# Results published in patent publication US4605744A, “Imidazole derivatives” (Hoffmann-La Roche Inc., priority 1985, dated 1986).
# Values joined by “and” are separate entries in the source; they are usually repeats but may differ in a detail not shown here. Equal values may be shown once. Read-outs that look alike come from different tables or passages of the source.
# Experiments:
# Test in all cases: In vitro antibacterial activity (MIC)
# Format in all cases: cell-based
# S. aureus 1059B = test system: S. aureus 1059B
# Experimental: (§1) Drug dilutions are prepared in Mueller-Hinton broth ranging from 128 to 0.008 μg/ml. The diluted agents are dispensed in 100 μl amounts into the wells of a 96-well tray and used immediately or frozen at -10° to -70° C. until needed. Using an automated inoculator, 1.5 μl of a 10^-2 dilution of an overnight culture is added to each well of the tray. The tops of the trays are then sealed using transparent tape and incubated overnight at 37° C. The trays are examined with the aid of a viewer. The lowest concentration at which no growth is observed is considered to be the minimum inhibitory concentration (MIC).
# S. marcescens S5 = test system: S. marcescens S5
# Experimental: as §1
# P. mirabilis 2 = test system: P. mirabilis 2
# Experimental: as §1
# K. pneumoniae 5096 = test system: K. pneumoniae 5096
# Experimental: as §1
# E. aerogenes 8 = test system: E. aerogenes 8
# Experimental: as §1
# S. aureus Smith = test system: S. aureus Smith
# Experimental: as §1
# S. pneumoniae 6302 = test system: S. pneumoniae 6302
# Experimental: as §1
# P. aeruginosa POW 151 = conditions: Pseudomonas aeruginosa, POW151
# Experimental: as §1
# E. coli R-563 = test system: E. coli R-563
# Experimental: as §1
# P. mirabilis 90 = test system: P. mirabilis 90
# Experimental: as §1
# S. pyogenes 503-782 = test system: S. pyogenes 503-782
# Experimental: as §1
# S. pneumoniae SC = test system: S. pneumoniae SC
# Experimental: as §1
# E. coli 5152 = test system: E. coli 5152
# Experimental: as §1
# S. marcescens S1 = test system: S. marcescens S1
# Experimental: as §1
# P. aeruginosa 503-820 = test system: P. aeruginosa 503-820
# Experimental: as §1
# E. cloacae 24 = test system: E. cloacae 24
# Experimental: as §1
# S. marcescens S2 = test system: S. marcescens S2
# Experimental: as §1
# P. aeruginosa 503-56 = test system: P. aeruginosa 503-56
# Experimental: as §1
# E. cloacae 9570A = test system: E. cloacae 9570A
# Experimental: as §1
# C. freundii CDC6 = test system: C. freundii CDC6
# Experimental: as §1
# P. aeruginosa 6148B = test system: P. aeruginosa 6148B
# Experimental: as §1
# S. pneumoniae 6301 = test system: S. pneumoniae 6301
# Experimental: as §1
# P. aeruginosa 8780 = test system: P. aeruginosa 8780
# Experimental: as §1
# S. marcescens S4 = test system: S. marcescens S4
# Experimental: as §1
# E. cloacae 214 = test system: E. cloacae 214
# Experimental: as §1
# P. aeruginosa 5712 = test system: P. aeruginosa 5712
# Experimental: as §1
# E. coli 48 = conditions: E. coli 48
# Experimental: as §1
# K. pneumoniae 4964 = conditions: K. pneumoniae 4964
# Experimental: as §1
# E. cloacae 6951 = conditions: E. cloacae 6951
# Experimental: as §1
# E. coli 503-455 = conditions: E. coli 503-455
# Experimental: as §1
# P. mirabilis 620A = conditions: P. mirabilis 620A
# Experimental: as §1
# P. vulgaris ATCC 6380 = conditions: P. vulgaris ATCC 6380
# Experimental: as §1
# E. aerogenes 503-478 = conditions: E. aerogenes 503-478
# Experimental: as §1
# E. coli 4 = conditions: E. coli 4
# Experimental: as §1
# K. pneumoniae 503-994 = conditions: K. pneumoniae 503-994
# Experimental: as §1
# C. diversus CDC 1663-72 = conditions: C. diversus CDC 1663-72
# Experimental: as §1
# P. vulgaris 101 = conditions: P. vulgaris 101
# Experimental: as §1
# E. cloacae P99 = conditions: E. cloacae P99
# Experimental: as §1
# P. mirabilis 503-1136 = conditions: P. mirabilis 503-1136
# Experimental: as §1
# E. cloacae 5699 = conditions: E. cloacae 5699
# Experimental: as §1
# C. freundii 8ASM = conditions: C. freundii 8ASM
# Experimental: as §1
# K. pneumoniae A = conditions: K. pneumoniae A
# Experimental: as §1
# P. vulgaris 100 = conditions: P. vulgaris 100
# Experimental: as §1
compound,measurement,setting,value
"CC1(C)S[C@@H]2[C@H](/N=C/N3CCCCCC3)C(=O)N2[C@H]1C(=O)O [Amdinocillin, amdinocillin, reference compound]",MIC,"S. aureus 1059B; Staphylococcus aureus, 1059B",128 µg/mL
same,MIC,"S. aureus 1059B; Staphylococcus aureus, read-out: MIC",64 µg/mL
same,MIC,S. marcescens S5; S. marcescens S5,0.5 µg/mL
same,MIC,"S. marcescens S5; Serratia marcescens, S5, S. marcescens S5, read-out: MIC",1 µg/mL
same,MIC,"P. mirabilis 2; Proteus mirabilis, 2",0.125 µg/mL
same,MIC,"K. pneumoniae 5096; Klebsiella pneumoniae, 5096, K. pneumoniae 5096",128 µg/mL
same,MIC,"K. pneumoniae 5096; Klebsiella pneumoniae, K. pneumoniae 5096, read-out: MIC",32 µg/mL
same,MIC,"E. aerogenes 8; Klebsiella aerogenes, 8, E. aerogenes 8",128 µg/mL
same,MIC,"E. aerogenes 8; Klebsiella aerogenes, E. aerogenes 8, read-out: MIC",0.25 µg/mL
same,MIC,S. aureus Smith; S. aureus Smith,8 µg/mL and 16 µg/mL
same,MIC,S. aureus Smith; Staphylococcus aureus,16 µg/mL
same,MIC,S. pneumoniae 6302; S. pneumoniae 6302,2 µg/mL
same,MIC,"S. pneumoniae 6302; Streptococcus pneumoniae, 6302, S. pneumoniae 6302, read-out: MIC",4 µg/mL
same,MIC,P. aeruginosa POW 151,> 128 µg/mL
same,MIC,"E. coli R-563; Escherichia coli, R563",0.125 µg/mL
same,MIC,P. mirabilis 90; P. mirabilis 90,0.5 µg/mL
same,MIC,"P. mirabilis 90; Proteus mirabilis, 90, P. mirabilis 90, read-out: MIC",0.25 µg/mL
same,MIC,"S. pyogenes 503-782; Streptococcus pyogenes, 503782, S. pyogenes 503-782",> 128 µg/mL
same,MIC,"S. pyogenes 503-782; Streptococcus pyogenes, 503782, S. pyogenes 503-782, read-out: MIC",1 µg/mL
same,MIC,S. pneumoniae SC,1 µg/mL
same,MIC,"S. pneumoniae SC; Streptococcus pneumoniae, read-out: MIC",2 µg/mL
same,MIC,E. coli 5152; E. coli 5152,16 µg/mL
same,MIC,"E. coli 5152; Escherichia coli, 5152, E. coli 5152, read-out: MIC",8 µg/mL
same,MIC,"S. marcescens S1; Serratia marcescens, S1",0.125 µg/mL
same,MIC,P. aeruginosa 503-820; P. aeruginosa 503-820,128 µg/mL
same,MIC,"P. aeruginosa 503-820; Pseudomonas aeruginosa, 503820, P. aeruginosa 503-820",> 128 µg/mL
same,MIC,"P. aeruginosa 503-820; Pseudomonas aeruginosa, 503820, P. aeruginosa 503-820, read-out: MIC",64 µg/mL
same,MIC,"E. cloacae 24; Enterobacter cloacae, 24",0.125 µg/mL
same,MIC,"S. marcescens S2; Serratia marcescens, S2, S. marcescens S2",0.125 µg/mL
same,MIC,"S. marcescens S2; Serratia marcescens, S. marcescens S2, read-out: MIC",0.25 µg/mL
same,MIC,P. aeruginosa 503-56; P. aeruginosa 503-56,128 µg/mL
same,MIC,"P. aeruginosa 503-56; Pseudomonas aeruginosa, 50356, P. aeruginosa 503-56",> 128 µg/mL
same,MIC,"E. cloacae 9570A; Enterobacter cloacae, 9570A",0.125 µg/mL
same,MIC,"E. cloacae 9570A; Enterobacter cloacae, read-out: MIC",0.062 µg/mL
same,MIC,"C. freundii CDC6; Citrobacter freundii, CDC6",0.125 µg/mL
same,MIC,P. aeruginosa 6148B,128 µg/mL
same,MIC,"P. aeruginosa 6148B; Pseudomonas aeruginosa, 6148B",> 128 µg/mL
same,MIC,"P. aeruginosa 6148B; Pseudomonas aeruginosa, read-out: MIC",64 µg/mL
same,MIC,S. pneumoniae 6301; S. pneumoniae 6301,1 µg/mL
same,MIC,"S. pneumoniae 6301; Streptococcus pneumoniae, 6301, S. pneumoniae 6301, read-out: MIC",2 µg/mL
same,MIC,"P. aeruginosa 8780; Pseudomonas aeruginosa, 8780",> 128 µg/mL
same,MIC,S. marcescens S4; S. marcescens S4,0.5 µg/mL
same,MIC,"S. marcescens S4; Serratia marcescens, S4, S. marcescens S4, read-out: MIC",1 µg/mL
same,MIC,"E. cloacae 214; Enterobacter cloacae, 214",0.125 µg/mL
same,MIC,"P. aeruginosa 5712; Pseudomonas aeruginosa, 5712",> 128 µg/mL
"CC1(C)S[C@@H]2[C@H](N=CN3CCCC(CCn4ccnc4)CC3)C(=O)N2[C@H]1C(=O)O.Cl.O (single isomer, unassigned) [D]",MIC,S. aureus 1059B,128 µg/mL
same,MIC,E. coli 48,0.125 µg/mL
same,MIC,K. pneumoniae 4964,1 µg/mL
same,MIC,S. marcescens S5; S. marcescens S5,2 µg/mL
same,MIC,P. mirabilis 2; P. mirabilis 2,0.5 µg/mL
same,MIC,K. pneumoniae 5096; K. pneumoniae 5096,> 128 µg/mL
same,MIC,E. aerogenes 8; E. aerogenes 8,128 µg/mL
same,MIC,E. cloacae 6951,16 µg/mL
same,MIC,S. aureus Smith; S. aureus Smith,32 µg/mL
same,MIC,S. pneumoniae 6302; S. pneumoniae 6302,8 µg/mL
same,MIC,E. coli 503-455,1 µg/mL
same,MIC,E. coli R-563; E. coli R-563,0.125 µg/mL
same,MIC,P. mirabilis 90; P. mirabilis 90,1 µg/mL
same,MIC,S. pyogenes 503-782; S. pyogenes 503-782,> 128 µg/mL
same,MIC,P. mirabilis 620A,64 µg/mL
same,MIC,P. vulgaris ATCC 6380,0.125 µg/mL
same,MIC,S. pneumoniae SC,4 µg/mL
same,MIC,E. aerogenes 503-478,8 µg/mL
same,MIC,E. coli 4,0.125 µg/mL
same,MIC,K. pneumoniae 503-994,0.125 µg/mL
same,MIC,E. coli 5152; E. coli 5152,16 µg/mL
same,MIC,C. diversus CDC 1663-72,0.125 µg/mL
same,MIC,S. marcescens S1; S. marcescens S1,0.5 µg/mL
same,MIC,E. cloacae 24; E. cloacae 24,0.5 µg/mL
same,MIC,P. vulgaris 101,32 µg/mL
same,MIC,S. marcescens S2; S. marcescens S2,0.5 µg/mL
same,MIC,P. aeruginosa 503-56; P. aeruginosa 503-56,> 128 µg/mL
same,MIC,E. cloacae 9570A,0.5 µg/mL
same,MIC,E. cloacae P99,0.125 µg/mL
same,MIC,P. mirabilis 503-1136,16 µg/mL
same,MIC,E. cloacae 5699,0.5 µg/mL
same,MIC,C. freundii 8ASM,0.062 µg/mL
same,MIC,C. freundii CDC6; C. freundii CDC6,0.25 µg/mL
same,MIC,P. aeruginosa 6148B,> 128 µg/mL
same,MIC,K. pneumoniae A,0.031 µg/mL
same,MIC,S. pneumoniae 6301; S. pneumoniae 6301,4 µg/mL
same,MIC,P. aeruginosa 8780; P. aeruginosa 8780,> 128 µg/mL
same,MIC,S. marcescens S4; S. marcescens S4,1 µg/mL
same,MIC,E. cloacae 214; E. cloacae 214,0.25 µg/mL
same,MIC,P. aeruginosa 5712; P. aeruginosa 5712,> 128 µg/mL
same,MIC,P. vulgaris 100,16 µg/mL
